38 molecules from patent publication US20150289512A1, “METHOD FOR PROMOTING PLANT GROWTH” (SUMITOMO CHEMICAL COMPANY, LIMITED, priority 2012, published 2015) can be followed below.

Molecules are shown by their SMILES.

Assay [1] concerns Rice (variety: Nipponbare). The assay is described as follows: Test Example 2: promotion of root growth by hydroponics of rice, 1 ppm. The note with it: Oryza sativa, hydroponic solution containing the test compound at 1 ppm, average of 4 or 5 individuals, read-out: Relative value of length of seminal root (%-untreated control plot). The format is in vivo. The method in brief:
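Surface-sterilized Nipponbare seeds germinated 3 days in dark at 28° C in ¼ Hoagland solution with compound at 1 ppm (DMSO 1/10,000; DMSO-only control), then grown hydroponically 3 days at 26° C, 4,000 lux, 16 h day. Seminal root length averaged over 4–5 plants.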

The subject of assay [2] is Rice (variety: Nipponbare). Kind of assay: Test Example 1: promotion of root growth by hydroponics of rice, 10 ppm. Type of assay: in vivo. The note with it: Oryza sativa, hydroponic solution containing the test compound at 10 ppm, average of 4 or 5 individuals, read-out: Relative value of length of seminal root (%-untreated control plot). The method in brief:
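Surface-sterilised seeds germinated 3 days in the dark at 28° C in hydroponic solution with compound at 10 ppm, then grown 3 days hydroponically with compound at 10 ppm (26° C, 4,000 lux, 16 h day, 50% humidity). Seminal root length measured by image analysis, averaged over 4 or 5 plants per plot.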

On to `COC(=O)c1cc2ccccc2o1` [Compound 1], for which the change in vivo at 1 ppm in assay [1] is greater than 5%.

For the molecule `COC(=O)c1cc2cc(C(F)(F)F)ccc2o1` [Compound 3, methyl 5-(trifluoromethyl)benzofuran-2-carboxylate], the change in vivo at 1 ppm in assay [1] was greater than 5%.

Regarding `COC(=O)c1nc2cc(C(F)(F)F)ccc2o1` [Compound 17, methyl 5-trifluoromethylbenzoxazole-2-carboxylate], in assay [1], the change in vivo at 1 ppm was greater than 5%.

As for `COC(=O)c1oc2ccc(C(F)(F)F)cc2c1C` [Compound 33], the change in vivo at 10 ppm in assay [2] is greater than 5%. Moreover, the change in vivo at 1 ppm in assay [1] is greater than 5%.

For `Cc1c(C(=O)O)oc2ccc(C(F)(F)F)cc12` [Compound 34], the change in vivo at 1 ppm in assay [1] is greater than 5%.

In the case of `Cc1c(C(=O)O)oc2ccccc12` [Compound 36], the change in vivo at 10 ppm in assay [2] was greater than 5%. The change in vivo at 1 ppm in assay [1] was greater than 5%.

As for `COC(=O)c1oc2ccccc2c1C` [Compound 37], the change in vivo at 10 ppm in assay [2] was greater than 5%. In addition, in assay [1], the change in vivo at 1 ppm is greater than 5%.

For `COC(=O)c1oc2ccccc2c1NC(=O)C(F)(F)F` [Compound 39], in assay [2], the change in vivo at 10 ppm was greater than 5%.

For the molecule `COC(=O)c1oc2ccccc2c1NC(C)=O` [Compound 40], the change in vivo at 10 ppm in assay [2] is greater than 5%. The change in vivo at 1 ppm in assay [1] was greater than 5%.

For the molecule `COC(=O)c1oc2ccccc2c1N(C(C)=O)C(C)=O` [Compound 41], the change in vivo at 1 ppm in assay [1] was greater than 5%.

For `O=C(O)c1cc2c(C(F)(F)F)cccc2o1` [Compound 43], the change in vivo at 10 ppm in assay [2] is greater than 5%. Further, the change in vivo at 1 ppm in assay [1] was greater than 5%.

In the case of `CCOC(=O)c1cc2c(C(F)(F)F)cccc2o1` [Compound 44], in assay [2], the change in vivo at 10 ppm is greater than 5%. Moreover, the change in vivo at 1 ppm in assay [1] is greater than 5%.

As for `COC(=O)c1cc2c(C(F)(F)F)cccc2o1` [Compound 45], the change in vivo at 1 ppm in assay [1] is greater than 5%.

For `COC(=O)c1oc2ccc(C(F)(F)F)cc2c1O` [Compound 50], the change in vivo at 10 ppm in assay [2] is greater than 5%. In assay [1], the change in vivo at 1 ppm is greater than 5%.

Take `NC(=O)c1cc2cc(C(F)(F)F)ccc2o1` [Compound 51]: in assay [2], the change in vivo at 10 ppm was greater than 5%. In addition, the change in vivo at 1 ppm in assay [1] was greater than 5%.

As to `CNC(=O)c1cc2cc(C(F)(F)F)ccc2o1` [Compound 52], the change in vivo at 10 ppm in assay [2] was greater than 5%. Further, in assay [1], the change in vivo at 1 ppm was greater than 5%.

In the case of `O=C(Nc1ccccc1)c1cc2cc(C(F)(F)F)ccc2o1` [Compound 53], the change in vivo at 10 ppm in assay [2] was greater than 5%. In addition, in assay [1], the change in vivo at 1 ppm is greater than 5%.

As for `O=C(NCc1ccccc1)c1cc2cc(C(F)(F)F)ccc2o1` [Compound 54], the change in vivo at 10 ppm in assay [2] was greater than 5%. Moreover, the change in vivo at 1 ppm in assay [1] is greater than 5%.

Regarding `O=C(Oc1ccccc1)c1cc2cc(C(F)(F)F)ccc2o1` [Compound 55], the change in vivo at 10 ppm in assay [2] was greater than 5%. In assay [1], the change in vivo at 1 ppm was greater than 5%.

`O=C(OCc1ccccc1)c1cc2cc(C(F)(F)F)ccc2o1` [Compound 56]: in assay [2], the change in vivo at 10 ppm is greater than 5%. In addition, the change in vivo at 1 ppm in assay [1] was greater than 5%.

Take `COC(=O)c1oc2ccc(C(F)(F)F)cc2c1N(C)C` [Compound 62]: the change in vivo at 10 ppm in assay [2] was greater than 5%. Besides, the change in vivo at 1 ppm in assay [1] was greater than 5%.

As to `COC(=O)c1oc2ccc(C(F)(F)F)cc2c1NC(C)=O` [Compound 63], the change in vivo at 10 ppm in assay [2] is greater than 5%. Also, in assay [1], the change in vivo at 1 ppm is greater than 5%.

Regarding `COC(=O)c1oc2ccc(C(F)(F)F)cc2c1NC(=O)C(F)(F)F` [Compound 65], the change in vivo at 1 ppm in assay [1] was greater than 5%.

In the case of `COC(=O)c1oc2ccc(C(F)(F)F)cc2c1NS(C)(=O)=O` [Compound 67], the change in vivo at 10 ppm in assay [2] is greater than 5%. In addition, the change in vivo at 1 ppm in assay [1] is greater than 5%.

With `COC(=O)c1oc2ccc(C(F)(F)F)cc2c1NS(=O)(=O)c1ccccc1` [Compound 68], in assay [2], the change in vivo at 10 ppm is greater than 5%. For the same molecule, in assay [1], the change in vivo at 1 ppm is greater than 5%.

Regarding `O=C(O)c1oc2ccc(C(F)(F)F)cc2c1C(F)(F)F` [Compound 69], the change in vivo at 10 ppm in assay [2] is greater than 5%. Also, the change in vivo at 1 ppm in assay [1] was greater than 5%.

Turning to `COC(=O)c1oc2ccc(C(F)(F)F)cc2c1C(F)(F)F` [Compound 70], the change in vivo at 1 ppm in assay [1] is greater than 5%.

As to `CCOC(=O)c1oc2ccc(C(F)(F)F)cc2c1C(F)(F)F` [Compound 71], in assay [2], the change in vivo at 10 ppm is greater than 5%.

As to `O=C(OCc1ccccc1)c1oc2ccc(C(F)(F)F)cc2c1C(F)(F)F` [Compound 73], the change in vivo at 1 ppm in assay [1] was greater than 5%.

Turning to `NC(=O)c1oc2ccc(C(F)(F)F)cc2c1C(F)(F)F` [Compound 74], the change in vivo at 10 ppm in assay [2] was greater than 5%. The change in vivo at 1 ppm in assay [1] was greater than 5%.

For the molecule `CNC(=O)c1oc2ccc(C(F)(F)F)cc2c1C(F)(F)F` [Compound 75], the change in vivo at 10 ppm in assay [2] was greater than 5%. The change in vivo at 1 ppm in assay [1] is greater than 5%.

In the case of `O=C(Nc1ccccc1)c1oc2ccc(C(F)(F)F)cc2c1C(F)(F)F` [Compound 76], the change in vivo at 10 ppm in assay [2] is greater than 5%. Moreover, in assay [1], the change in vivo at 1 ppm is greater than 5%.

Turning to `O=C(NCc1ccccc1)c1oc2ccc(C(F)(F)F)cc2c1C(F)(F)F` [Compound 77], the change in vivo at 1 ppm in assay [1] is greater than 5%.

For `CCOC(=O)c1oc2cccc(O)c2c1C` [Compound 80], in assay [2], the change in vivo at 10 ppm is greater than 5%. Besides, the change in vivo at 1 ppm in assay [1] is greater than 5%.

In the case of `O=C(O)c1oc2ccccc2c1C(F)(F)F` [Compound 82], in assay [2], the change in vivo at 10 ppm is greater than 5%. In assay [1], the change in vivo at 1 ppm is greater than 5%.

As for `COC(=O)c1oc2ccccc2c1C(F)(F)F` [Compound 83], the change in vivo at 1 ppm in assay [1] was greater than 5%.

For `NC(=O)c1oc2ccccc2c1C(F)(F)F` [Compound 85], in assay [2], the change in vivo at 10 ppm was greater than 5%. Also, the change in vivo at 1 ppm in assay [1] was greater than 5%.

`O=C(O)c1nc2c(F)cc(F)cc2s1` [Compound 86]: the change in vivo at 10 ppm in assay [2] is greater than 5%. Further, in assay [1], the change in vivo at 1 ppm was greater than 5%.
